“And” between values parts separate entries of the source, which are not always exact repeats. Equal entries are not always repeated.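 Five concentrations, 48 hours, 96-well plates. Abbreviation: GI50, concentration required for 50% inhibition of growth.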 The source made the active and inactive calls. No stated cut-off is given here; in the data, active = GI50 up to about 1.1 µM and inactive = higher.
Assays:
Experiment in all cases: growth of human tumour cells (NCI), 48 h
COLO 205 = system: COLO 205
NCI-H460 = system: NCI-H460
OVCAR-8 = system: OVCAR-8
SK-MEL-5 = system: SK-MEL-5
OVCAR-5 = system: OVCAR-5
NCI-H226 = system: NCI-H226
HL-60 = system: HL-60
M19-MEL = system: M19-MEL
KM12 = system: KM12
HCT-116 = system: HCT-116
HT-29 = system: HT-29
UACC-62 = system: UACC-62
A549 = system: A549
DLD-1 = system: DLD-1
LXFL 529 = system: LXFL 529
SK-MEL-28 = system: SK-MEL-28
A498 = system: A498
SNB-78 = system: SNB-78
HCC 2998 = system: HCC 2998
DMS-114 = system: DMS-114
SK-MEL-2 = system: SK-MEL-2
Malme-3M = system: Malme-3M
DMS-273 = system: DMS-273
CCRF-CEM = system: CCRF-CEM
SW-620 = system: SW-620
LOX IMVI = system: LOX IMVI
K562 = system: K562
SN12C = system: SN12C
ACHN = system: ACHN
EKVX = system: EKVX
HCT-15 = system: HCT-15
SNB-75 = system: SNB-75
RPMI-8226 = system: RPMI-8226
OVCAR-4 = system: OVCAR-4
SF-295 = system: SF-295
NCI-H522 = system: NCI-H522
SK-OV-3 = system: SK-OV-3
HOP-62 = system: HOP-62
NCI-H23 = system: NCI-H23
XF498 = system: XF498
SF-268 = system: SF-268
UO-31 = system: UO-31
M14 = system: M14
UACC-257 = system: UACC-257
HOP-92 = system: HOP-92
KM-20L2 = system: KM-20L2
OVCAR-3 = system: OVCAR-3
U-251 = system: U-251
TK-10 = system: TK-10
MOLT-4 = system: MOLT-4
SF-539 = system: SF-539
SR = system: SR
SNB-19 = system: SNB-19
CAKI-1 = system: CAKI-1

SMILES: CC(=O)OCC1OC(n2c(=S)n(-c3ccccc3)c(=O)c3cc(Br)cc(Br)c32)C(OC(C)=O)C(OC(C)=O)C1OC(C)=O (centres undefined)
- GI50 (COLO 205): > 100 µM (inactive)
- GI50 (NCI-H460): > 100 µM (inactive) and 81.8 µM (inactive)
- GI50 (OVCAR-8): > 100 µM (inactive) and 92.9 µM (inactive)
- GI50 (SK-MEL-5): 91.6 µM (inactive)
- GI50 (OVCAR-5): > 100 µM (inactive)
- GI50 (NCI-H226): 61.7 µM (inactive)
- GI50 (HL-60): 86.7 µM (inactive)
- GI50 (M19-MEL): 65.6 µM (inactive)
- GI50 (KM12): 83 µM (inactive) and 78.5 µM (inactive)
- GI50 (HCT-116): 65.2 µM (inactive)
- GI50 (HT-29): > 100 µM (inactive)
- GI50 (UACC-62): 59.2 µM (inactive) and 54.3 µM (inactive)
- GI50 (A549): 90.8 µM (inactive) and 58.6 µM (inactive)
- GI50 (DLD-1): > 100 µM (inactive)
- GI50 (LXFL 529): 72.1 µM (inactive) and 45.2 µM (inactive)
- GI50 (SK-MEL-28): > 100 µM (inactive)
- GI50 (A498): > 100 µM (inactive) and 61.7 µM (inactive)
- GI50 (SNB-78): 99.3 µM (inactive) and 54.8 µM (inactive)
- GI50 (HCC 2998): > 100 µM (inactive)
- GI50 (DMS-114): 35.2 µM (inactive) and 57.8 µM (inactive)
- GI50 (SK-MEL-2): > 100 µM (inactive)
- GI50 (Malme-3M): > 100 µM (inactive)
- GI50 (DMS-273): > 100 µM (inactive) and 64.9 µM (inactive)
- GI50 (CCRF-CEM): > 100 µM (inactive)
- GI50 (SW-620): > 100 µM (inactive)
- GI50 (LOX IMVI): 60 µM (inactive)
- GI50 (K562): 65.3 µM (inactive)
- GI50 (SN12C): > 100 µM (inactive) and 81.8 µM (inactive)
- GI50 (ACHN): 51.8 µM (inactive) and 87.3 µM (inactive)
- GI50 (EKVX): > 100 µM (inactive)
- GI50 (HCT-15): 83.4 µM
- GI50 (SNB-75): 33.5 µM (inactive) and 22.6 µM (inactive)

SMILES: O=C1CSC(C(/N=N/c2ccc(Cl)cc2)c2nc3ccccc3[nH]2)=N1 (centres undefined)
- GI50 (COLO 205): > 100 µM (inactive)
- GI50 (RPMI-8226): > 100 µM (inactive)
- GI50 (NCI-H460): 33 µM (inactive)
- GI50 (OVCAR-4): > 100 µM (inactive)
- GI50 (OVCAR-8): 82.8 µM (inactive)
- GI50 (SF-295): 38.8 µM (inactive)
- GI50 (SK-MEL-5): 25.6 µM (inactive)
- GI50 (OVCAR-5): > 100 µM (inactive)
- GI50 (NCI-H226): 0.0105 µM (active)
- GI50 (NCI-H522): 25.9 µM (inactive)
- GI50 (SK-OV-3): 55 µM (inactive)
- GI50 (HOP-62): 35.2 µM (inactive)
- GI50 (HL-60): 51.6 µM (inactive)
- GI50 (M19-MEL): 85.7 µM (inactive)
- GI50 (NCI-H23): 63 µM (inactive)
- GI50 (XF498): 17.8 µM (inactive)
- GI50 (KM12): 45.8 µM (inactive)
- GI50 (HCT-116): > 100 µM (inactive)
- GI50 (SF-268): > 100 µM (inactive)
- GI50 (HT-29): > 100 µM (inactive)
- GI50 (UO-31): 39.1 µM (inactive)
- GI50 (UACC-62): > 100 µM (inactive)
- GI50 (M14): > 100 µM (inactive)
- GI50 (UACC-257): > 100 µM (inactive)
- GI50 (HOP-92): 54 µM (inactive)
- GI50 (KM-20L2): > 100 µM (inactive)
- GI50 (OVCAR-3): 36.9 µM (inactive)
- GI50 (A549): > 100 µM (inactive)
- GI50 (DLD-1): 65.5 µM (inactive)
- GI50 (U-251): 53.3 µM (inactive)
- GI50 (LXFL 529): 52.6 µM (inactive)
- GI50 (SK-MEL-28): 35.5 µM (inactive)
- GI50 (TK-10): > 100 µM (inactive)
- GI50 (A498): > 100 µM (inactive)
- GI50 (HCC 2998): 25.6 µM (inactive)
- GI50 (MOLT-4): 6.79 µM (inactive)
- GI50 (DMS-114): 26.2 µM (inactive)
- GI50 (SK-MEL-2): 16 µM (inactive)
- GI50 (Malme-3M): > 100 µM (inactive)
- GI50 (DMS-273): 60.4 µM (inactive)
- GI50 (SF-539): 23.4 µM (inactive)
- GI50 (CCRF-CEM): 10.7 µM (inactive)
- GI50 (SW-620): > 100 µM (inactive)
- GI50 (SR): 76.4 µM (inactive)
- GI50 (K562): 61.8 µM (inactive)
- GI50 (SNB-19): 50.6 µM (inactive)
- GI50 (SN12C): > 100 µM (inactive)
- GI50 (ACHN): 28.7 µM (inactive)
- GI50 (EKVX): 91.2 µM (inactive)
- GI50 (HCT-15): > 100 µM
- GI50 (SNB-75): 25.6 µM (inactive)
- GI50 (CAKI-1): > 100 µM (inactive)

Source: ChEMBL document CHEMBL1201862, “PubChem BioAssay data set” (2004)
